Data from US9969771B2, “Tetrapeptide having effect of inhibiting VEGF-induced angiogenesis and use thereof” (AVIXGEN INC., priority 2015, dated 2018).
“Also recorded” adds a separate entry of the source. Where a SMILES comes first, the peptide text is derived from it.

Experiments:
ERK = test: Western blot, ERK phosphorylation in HUVECs; type: cell-based, human
Description: Cells were lyzed in RIPA buffer, and 50 μg of proteins were isolated by SDS-PAGE and then transferred to a PVDF membrane. The membrane was reacted with an antibody with respect to a target protein for 2 hours. The membrane was washed twice and reacted with a horseradish peroxidase-conjugated antibody, and then an amount of the target proteins was assessed with an enhanced chemiluminescence system.

[1] = system: B16F1 mouse melanoma cells; test: Mouse melanoma (B16F1) animal model; type: in vivo, C57BL/6J mouse; conditions: 1 mg/kg per day peritoneally
Description: 100 μl each of 2×10^6 B16F1 mouse melanoma cells and 1×10^7 HCT116 human colorectal tumor cells were subcutaneously injected into the left side of a C57BL/6J mouse and a nude mouse. After a tumor volume reached at least 50 to 70 mm3 (taking about 7 days), saline or RLYE (SEQ ID NO: 2) (0.5 or 1.0 mg/kg) was peritoneally injected daily into the mice. A tumor size was two-dimensionally measured with calipers. A tumor volume (mm3) was calculated by a formula of […]. Following homogenization of tumor tissue with PBS and centrifugation (at 12,000×g for 5 min), a hemoglobin-containing supernatant was extracted to be used in analysis with Drabkin's reagent (Sigma). A hemoglobin level was measured by a cyanmethemoglobin method, and the amount of hemoglobin per gram of the tumor was calculated.

VEGFR-2 = VEGFR-2 (Homo sapiens, UniProt P35968); test: Surface plasmon resonance (SPR) assay; type: binding; conditions: rhVEGFR-2 fixed on CM5 chip
VEGFR-2, sequence (P35968 20-1356): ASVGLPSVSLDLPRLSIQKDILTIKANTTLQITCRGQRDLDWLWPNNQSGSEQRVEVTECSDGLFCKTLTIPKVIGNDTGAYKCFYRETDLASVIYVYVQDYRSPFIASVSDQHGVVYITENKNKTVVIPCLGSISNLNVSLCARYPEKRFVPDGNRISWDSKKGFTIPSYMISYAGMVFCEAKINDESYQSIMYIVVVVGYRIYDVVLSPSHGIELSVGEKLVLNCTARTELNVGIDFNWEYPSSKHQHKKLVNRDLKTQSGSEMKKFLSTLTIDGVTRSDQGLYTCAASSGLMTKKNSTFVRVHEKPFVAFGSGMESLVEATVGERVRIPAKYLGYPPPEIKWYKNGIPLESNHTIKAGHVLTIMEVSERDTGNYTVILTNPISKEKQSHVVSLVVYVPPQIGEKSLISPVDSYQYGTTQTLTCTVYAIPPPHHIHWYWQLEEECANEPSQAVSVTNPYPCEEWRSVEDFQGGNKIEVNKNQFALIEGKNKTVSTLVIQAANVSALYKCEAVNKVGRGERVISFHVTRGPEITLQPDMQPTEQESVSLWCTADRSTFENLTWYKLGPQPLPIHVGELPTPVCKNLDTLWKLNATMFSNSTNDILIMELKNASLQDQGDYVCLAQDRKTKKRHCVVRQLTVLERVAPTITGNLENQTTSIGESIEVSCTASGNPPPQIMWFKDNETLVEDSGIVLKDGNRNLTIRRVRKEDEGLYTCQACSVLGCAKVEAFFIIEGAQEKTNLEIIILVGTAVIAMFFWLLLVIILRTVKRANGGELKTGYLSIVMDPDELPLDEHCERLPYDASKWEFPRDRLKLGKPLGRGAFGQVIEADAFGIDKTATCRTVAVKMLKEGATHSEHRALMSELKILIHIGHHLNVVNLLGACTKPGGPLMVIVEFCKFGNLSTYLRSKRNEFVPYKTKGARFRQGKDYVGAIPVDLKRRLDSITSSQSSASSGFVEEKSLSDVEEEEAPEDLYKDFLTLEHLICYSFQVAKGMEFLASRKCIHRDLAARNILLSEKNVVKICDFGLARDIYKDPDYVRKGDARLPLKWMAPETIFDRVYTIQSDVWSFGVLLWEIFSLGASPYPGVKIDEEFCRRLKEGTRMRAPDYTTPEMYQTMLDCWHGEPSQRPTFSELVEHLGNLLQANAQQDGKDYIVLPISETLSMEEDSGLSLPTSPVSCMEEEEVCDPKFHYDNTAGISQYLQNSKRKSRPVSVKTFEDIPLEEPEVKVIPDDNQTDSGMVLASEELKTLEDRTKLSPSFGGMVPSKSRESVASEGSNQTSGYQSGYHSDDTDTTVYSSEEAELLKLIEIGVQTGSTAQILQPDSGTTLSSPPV
Description: Binding dynamics and affinity of RLYE (SEQ ID NO: 2) to rhVEGFR-2 were evaluated with BIAcore AB (Sweden). A carboxymethylated dextran biosensor chip (CM5, BIAcore AB) was activated with 1-ethyl-3-(3-dimethylaminopropyl)carbodiimide and N-hydroxysuccinimide according to the manufacturer's manual. The rhVEGFR-2 (1 ng/μl, 10 mM Hepes, 150 mM NaCl, 3 mM EDTA, 0.005% Tween-20-containing HBS-EP buffer) was injected over the activated CM5 chip for fixation. Various concentrations of an RLYE (SEQ ID NO: 2) solution was injected over the rhVEGFR-2-fixed center chip with a flow rate of 25 μl/min, and binding and non-binding characteristics between RLYE (SEQ ID NO: 2) and the rhVEGFR-2 were analyzed. The peptide bonds were measured in arbitrary response units, and after the injection of each sample (120 sec), the HBS-EP buffer was passed over a sensor surface to monitor dissociation. The equilibrium dissociation constant (Kd) was derived to a fixing step-combined model.

binding to rhVEGFR-2 (SPR) (VEGFR-2): effectively binds
Compound: CC(C)C[C@H](NC(=O)[C@@H](N)CCCNC(=N)N)C(=O)N[C@@H](Cc1ccc(O)cc1)C(=O)N[C@@H](CCC(=O)O)C(=O)O [RLYE] (H-RLYE-OH; N-terminus and C-terminus assumed)
P1GF-induced ERK phosphorylation (ERK; P1GF (ligand of VEGFR-1)): did not inhibit
inhibition of VEGF-induced ERK phosphorylation (ERK; VEGF / VEGF-A stimulated): inhibited; also recorded: more effectively inhibited; also recorded: highest inhibitory effect
VEGF-B-induced ERK phosphorylation (ERK; VEGF-B (ligand of VEGFR-1)): did not inhibit
tumor growth [1]: significantly decreased
tumor size [1]: significantly decreased
tumor weight [1]: significantly decreased
